From US12156857B2, “Composition for promoting ketone body production” (Meiji Co., Ltd., priority 2016, dated 2024)

How the values were obtained:
Type in all cases: in vivo, Male Wistar rats
ketone body production [1] = assay: Selection of amino acid promoting ketone body production: blood β-hydroxybutyric acid after amino acid plus MCT feeding; conditions: rats, until 6 hours; for % ΔAUC (%): % relative value of area under the blood concentration-curve ΔAUC of β-hydroxybutyric acid, control group = 100 / % ΔCmax (%): % relative value of maximum blood concentration ΔCmax of β-hydroxybutyric acid, control group = 100: overnight fasting, amino acid 1.0 mmol/kg oral, then caprylic triglyceride (MCT) 3.0 g/kg oral, control water + MCT; for both % ΔCmax and % ΔAUC of β-hydroxybutyric acid compared with control group fed with water: amino acid 1.0 mmol/kg oral + MCT 3.0 g/kg oral
Protocol: (§1) In the following Examples, the blood β-hydroxybutyric acid concentration was measured with a β-hydroxybutyric acid measuring instrument for self-inspection (Precision Xceed manufactured by Abbott).
In the following Examples, the promotion of ketone body production was evaluated as follows. Specifically, blood was collected from the caudal vein of rats under fasting to measure the blood concentration (mmol/L) of β-hydroxybutyric acid (bHB) as an index of the ketone body in the blood. The measured value was defined as an initial value (0 hours). The rats were grouped into a control group and an experimental group, and fed with test samples. Thereafter, the transition of the blood bHB concentration until after 6 hours from the initial value was graphed. A reference view for determining the maximum blood concentration (Cmax) and area under the blood concentration-curve (AUC) of bHB is shown in FIG. 1A. A value obtained by subtracting the measured value at the initial value (0 hours) from the measured value at the time of each measurement was calculated, and defined as an amount of change in blood β-hydroxybutyric acid concentration (ΔbHB concentration) (FIG. 1B). Then, for the amount of change in blood β-hydroxybutyric acid concentration (ΔbHB concentration), the maximum blood concentration (ΔCmax) and area under the blood concentration-curve (ΔAUC) until after 6 hours from the initial value (0 hours) were calculated (FIG. 1B).
A % relative value (% ΔCmax (%)) of the maximum blood concentration ΔCmax of β-hydroxybutyric acid for the experimental group when the maximum blood concentration ΔCmax of β-hydroxybutyric acid for the control group was assumed to be 100 was determined according to the following calculation formula.
A % relative value (% ΔAUC (%)) of the area under the blood concentration-curve ΔAUC of blood β-hydroxybutyric acid for the experimental group when the area under the blood concentration-curve ΔAUC of blood β-hydroxybutyric acid for the control group was assumed to be 100 was determined according to the following calculation formula.
Male Wistar rats (obtained from Japan SLC, Inc.) were acclimated for one week and then used for testing. Blood was collected from the caudal vein of the rats under overnight fasting to measure the blood concentration (mmol/L) of β-hydroxybutyric acid (bHB) as an index of the ketone body in the blood. The rats were grouped (n=8 for each group) so that the averages of the body weights and the β-hydroxybutyric acid concentrations for the respective groups were as equal as possible. Then, water was orally fed in an amount of 10 mL/kg of the body weight to the control group, and aqueous solutions of various amino acids (manufactured by Wako Pure Chemical Industries, Ltd.) were orally fed in an amount of 1.0 mmol/kg of the body weight to the experimental group. Immediately after feeding of water or each of the aqueous amino acid solutions, caprylic triglyceride (manufactured by Tokyo Chemical Industry Co., Ltd.), which is medium-chain fatty acid oil and fat (MCT), was orally fed in an amount of 3.0 g/kg of the body weight to the groups. Blood was collected from the caudal vein 1, 2, 3, 4, 5, and 6 hours after feeding of MCT to measure the blood β-hydroxybutyric acid concentration.

ketone body production [2] = assay: Effect of citrulline amount on ketone body production in feeding of medium-chain fatty acid oil and fat; conditions: rats, four-hour fasting; citrulline 1.5, 2.25 or 3.0 mmol/kg + MCT 4.5 g/kg oral constant; until 6 hours
Protocol: as §1
(§2) In the following Examples, the promotion of ketone body production was evaluated as follows. Specifically, blood was collected from the caudal vein of rats under fasting to measure the blood concentration (mmol/L) of β-hydroxybutyric acid (bHB) as an index of the ketone body in the blood. The measured value was defined as an initial value (0 hours). The rats were grouped into a control group and an experimental group, and fed with test samples. Thereafter, the transition of the blood bHB concentration until after 6 hours from the initial value was graphed. […] A value obtained by subtracting the measured value at the initial value (0 hours) from the measured value at the time of each measurement was calculated, and defined as an amount of change in blood β-hydroxybutyric acid concentration (ΔbHB concentration) (FIG. 1B). Then, for the amount of change in blood β-hydroxybutyric acid concentration (ΔbHB concentration), the maximum blood concentration (ΔCmax) and area under the blood concentration-curve (ΔAUC) until after 6 hours from the initial value (0 hours) were calculated (FIG. 1B). […]

ketone body production [3] = assay: Effect of citrulline or leucine on ketone body production in feeding of medium-chain fatty acid oil and fat; conditions: rats, four-hour fasting; amino acid 1.5 mmol/kg oral + caprylic triglyceride (MCT) 4.5 g/kg oral; until 6 hours
Protocol: as §1, §2

SMILES	% ΔAUC (%): % relative value of area under the blood concentration-curve ΔAUC of β-hydroxybutyric acid, control group = 100 (ketone body production [1]) [%]	% ΔCmax (%): % relative value of maximum blood concentration ΔCmax of β-hydroxybutyric acid, control group = 100 (ketone body production [1]) [%]	both % ΔCmax and % ΔAUC of β-hydroxybutyric acid compared with control group fed with water (ketone body production [1])	amount of ketone bodies produced as a function of citrulline intake amount (% ΔAUC, % ΔCmax, FIGS. 8 and 9) (ketone body production [2])	ketone body production compared with MCT fed alone (ΔbHB, ΔAUC, ΔCmax, FIGS. 2 to 7) (ketone body production [3])
N[C@@H](CC(=O)O)C(=O)O [Aspartic acids (Asp), aspartic acid]	107.5 ± 30.7	108.8 ± 23.6	higher than those for the control group		
NC(=O)NCCC[C@H](N)C(=O)O [Citrulline (Cit), citrulline]	105.4 ± 37.2	112.8 ± 25.5	higher than those for the control group	the amount of the ketone bodies produced varied according to the intake amount of citrulline (Cit)	the ketone body production was promoted
N[C@@H](CS)C(=O)O [Cysteine (Cys), cysteine]	128.3 ± 22.2	151.9 ± 23.8	higher than those for the control group		
NC(=O)CC[C@H](N)C(=O)O [Glutamine (Gln), glutamine]	103.6 ± 30.7	121.2 ± 44.6	higher than those for the control group		
CC(C)C[C@H](N)C(=O)O [Leucine (Leu), leucine]	110.5 ± 21.1	130.1 ± 31.8	higher than those for the control group		the ketone body production was promoted
NCCS(=O)(=O)O [Taurine (Tau), taurine]	103.6 ± 23.0	137.8 ± 21.8	higher than those for the control group		
